Source: ChEMBL document CHEMBL1201862, “PubChem BioAssay data set” (2004)
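Tested at 5 concentrations; 48 h exposure; 96-well plates; endpoints linearly interpolated, else capped at highest concentration. Here, GI50 denotes the concentration required for 50% inhibition of growth.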 Activity calls are given as the source filed them. No stated cut-off is given here; in the data, active = GI50 up to about 1.1 µM and inactive = higher. Where a SMILES comes first, the peptide text is derived from it. [ ]: non-standard residue; d: D form. The star is where a group is joined. Bn2Val = CC(C)[C@@H](C(=O)*)N(Cc1ccccc1)Cc1ccccc1; NH(3,4-diMeO-benzyl) = COc1ccc(CN*)cc1OC; NMeV = CN[C@H](C(=O)O)C(C)C

Legend:
Test in all cases: NCI tumour cell line growth inhibition, 48 h
786-0 = system: 786-0
TK-10 = system: TK-10
SF-268 = system: SF-268
NCI-H226 = system: NCI-H226
SNB-75 = system: SNB-75
KM12 = system: KM12
COLO 205 = system: COLO 205
ACHN = system: ACHN
NCI/ADR-RES = system: NCI/ADR-RES
PC-3 = system: PC-3
OVCAR-3 = system: OVCAR-3
MDA-MB-435 = system: MDA-MB-435
IGROV-1 = system: IGROV-1
M14 = system: M14
UACC-62 = system: UACC-62
HCT-116 = system: HCT-116
RXF 393 = system: RXF 393
UACC-257 = system: UACC-257
CCRF-CEM = system: CCRF-CEM
A498 = system: A498

Measured: GI50

O=C(O)CCC(NC(=O)c1ccc(OCc2nc3cc(C(F)(F)F)ccc3nc2-c2ccccc2)cc1)C(=O)O (stereo not given)
inactive: 786-0 > 100 µM | TK-10 > 100 µM | SF-268 > 100 µM | NCI-H226 > 100 µM | SNB-75 > 100 µM | KM12 > 100 µM | COLO 205 > 100 µM | ACHN > 100 µM | NCI/ADR-RES > 100 µM | PC-3 > 100 µM | OVCAR-3 > 100 µM | MDA-MB-435 > 100 µM | IGROV-1 > 100 µM | M14 > 100 µM | UACC-62 > 100 µM | HCT-116 > 100 µM | RXF 393 > 100 µM | UACC-257 > 100 µM | CCRF-CEM > 100 µM | A498 > 100 µM

COc1ccc(C(OCC2OC(n3cc(C)c(=O)[nH]c3=O)CC2n2cc(Cn3cc(Cl)c(=O)[nH]c3=O)nn2)(c2ccccc2)c2ccccc2)cc1 (stereo not given)
inactive: 786-0 > 100 µM | TK-10 > 100 µM | SF-268 > 100 µM | NCI-H226 > 100 µM | SNB-75 > 100 µM | KM12 > 100 µM | COLO 205 > 100 µM | ACHN > 100 µM | NCI/ADR-RES > 100 µM | PC-3 13.6 µM | OVCAR-3 > 100 µM | MDA-MB-435 7.18 µM | IGROV-1 39.5 µM | M14 > 100 µM | UACC-62 38 µM | HCT-116 33.9 µM | RXF 393 > 100 µM | UACC-257 > 100 µM | CCRF-CEM 2.95 µM | A498 > 100 µM

CN(C)C(=O)Oc1ccc(-c2cn3cc(NC(=O)c4ccccc4)ccc3n2)cc1
inactive: 786-0 > 100 µM | TK-10 > 100 µM | SF-268 80.4 µM | NCI-H226 > 100 µM | SNB-75 86.1 µM | KM12 55.5 µM | COLO 205 14.3 µM | ACHN > 100 µM | NCI/ADR-RES > 100 µM | PC-3 > 100 µM | OVCAR-3 53.7 µM | MDA-MB-435 85.7 µM | IGROV-1 70.8 µM | M14 > 100 µM | UACC-62 > 100 µM | HCT-116 > 100 µM | RXF 393 > 100 µM | UACC-257 53.8 µM | CCRF-CEM 99.5 µM | A498 > 100 µM

COc1ccc(CNC(=O)[C@@H]2CCCN2C(=O)[C@@H]2CCCN2C(=O)[C@H](C(C)C)N(C)C(=O)[C@@H](NC(=O)[C@H](C(C)C)N(Cc2ccccc2)Cc2ccccc2)C(C)C)cc1OC (Bn2Val-V[NMeV]PP-{NH(3,4-diMeO-benzyl)})
inactive: 786-0 10.4 µM | TK-10 14 µM | SF-268 21.3 µM | NCI-H226 17.3 µM | SNB-75 10.3 µM | KM12 21.4 µM | COLO 205 9.71 µM | ACHN 13.7 µM | NCI/ADR-RES 18.3 µM | PC-3 6.15 µM | OVCAR-3 12 µM | MDA-MB-435 12 µM | IGROV-1 3.92 µM | M14 14.6 µM | UACC-62 14.5 µM | HCT-116 14.4 µM | RXF 393 11.1 µM | UACC-257 11.3 µM | CCRF-CEM 4.23 µM | A498 17.8 µM

COC(=O)c1ccccc1NC(=O)C(=O)CC(=O)c1ccccc1NC1=CC(=O)C(=O)c2ccccc21
inactive: 786-0 5.65 µM | TK-10 67.6 µM | SF-268 5.96 µM | NCI-H226 25.9 µM | SNB-75 17.5 µM | KM12 15.2 µM | COLO 205 31.9 µM | ACHN 14.5 µM | NCI/ADR-RES 2.33 µM | PC-3 10.9 µM | OVCAR-3 1.78 µM | MDA-MB-435 4.15 µM | IGROV-1 13.2 µM | M14 5.12 µM | UACC-62 8.87 µM | HCT-116 4.67 µM | RXF 393 15.6 µM | UACC-257 6.05 µM | CCRF-CEM 3.17 µM | A498 > 56.2 µM
